Among the test systems are IGROV1 ovarian; K-562 leukemia; SW-620 colon; CAKI-1 renal; HL-60(TB) leukemia; COLO 205 colon; SN12C renal.
What all share (experiment): inhibition of tumour cell growth, NCI panel, 48 h

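Protocol summary: plate cells (96-well), add compound at 5 concentrations, incubate 48 h, interpolate endpoints linearly. Abbreviation: GI50, concentration required for 50% inhibition of growth. TGI denotes the concentration required for complete inhibition of growth.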

For 14 compounds, GI50 and TGI results are on record in PubChem BioAssay (NCI).

With `CC[C@@]1(O)C(=O)OCc2c1cc1n(c2=O)Cc2cc3c([N+](=O)[O-])c(O)ccc3nc2-1`, the GI50 is 1.04 µM with IGROV1 ovarian; 0.84 µM with K-562 leukemia; 0.416 µM in the assay on SW-620 colon; 0.0864 µM with CAKI-1 renal; 0.13 µM with HL-60(TB) leukemia; 3.56 µM in the assay on COLO 205 colon. Also, the GI50 in the assay on SN12C renal is 0.057 µM. Further, the TGI was 17.3 µM in the assay with IGROV1 ovarian; above 100 µM with K-562 leukemia; 33.8 µM in the assay on SW-620 colon; 8.47 µM in the assay on CAKI-1 renal; 1.3 µM in the assay with HL-60(TB) leukemia; 27.3 µM in the assay with COLO 205 colon. For the same compound, in the assay on SN12C renal, the TGI stood at 4.77 µM.
Turning to `Cc1cc(Cl)ccc1NC(=O)C1C(=O)C(=O)N(c2ccc(Cl)cc2C)C1=O` (centres undefined), the TGI in the assay with IGROV1 ovarian, in the assay on K-562 leukemia, in the assay on SW-620 colon, with CAKI-1 renal, with HL-60(TB) leukemia and in the assay with COLO 205 colon was above 100 µM in each case. Besides, the TGI in the assay on SN12C renal is above 100 µM.
As to `[O-]c1ccccc1[C-]=Nc1ccccc1O.[O-]c1ccccc1[C-]=Nc1ccccc1O.[O]=[U]=[O]`, the GI50 was 21.8 µM in the assay on IGROV1 ovarian; 2.79 µM in the assay on K-562 leukemia; 12.2 µM with SW-620 colon; 12.5 µM in the assay with CAKI-1 renal; 1.76 µM in the assay on HL-60(TB) leukemia; 19 µM in the assay with COLO 205 colon. In addition, in the assay on SN12C renal, the GI50 was 10 µM. Besides, the TGI was 71 µM with IGROV1 ovarian; above 100 µM with K-562 leukemia; 74.5 µM with SW-620 colon; 37.3 µM with CAKI-1 renal; 7.47 µM in the assay on HL-60(TB) leukemia; 51.6 µM in the assay with COLO 205 colon. The compound further gave a TGI in the assay on SN12C renal of 35.4 µM.
Turning to `O=c1/c(=C/c2ccccc2O)sc2nc3ccccc3n12`, the TGI in the assay on IGROV1 ovarian was 85.1 µM; in the assay with K-562 leukemia, 99.5 µM; in the assay on SW-620 colon, above 100 µM; in the assay with CAKI-1 renal, above 100 µM; in the assay with HL-60(TB) leukemia, 26.8 µM; with SN12C renal, above 100 µM.
In the case of `COC(=O)c1ccc(CS(=O)(=O)c2ccccc2)cc1`, the TGI in the assay with IGROV1 ovarian, with K-562 leukemia, in the assay on SW-620 colon, with CAKI-1 renal, in the assay with HL-60(TB) leukemia and with COLO 205 colon was above 100 µM throughout. The compound also yielded a TGI with SN12C renal above 100 µM.
For the compound `CC1(OCc2ccccc2)C(=O)N2C1N(C(=O)OCc1ccccc1)CC2(C)C` (centres undefined), the TGI was above 100 µM in the assay on IGROV1 ovarian; above 100 µM in the assay with K-562 leukemia; above 100 µM with SW-620 colon; 90.5 µM in the assay on HL-60(TB) leukemia; above 100 µM in the assay on COLO 205 colon; above 100 µM in the assay on SN12C renal.
With `O=C1C2c3[nH]c4ccccc4c3C3CCC(c4ccccc4)CC3C2C(=O)N1c1ccccc1` (centres undefined), the TGI is above 100 µM in the assay with IGROV1 ovarian; above 100 µM with K-562 leukemia; above 100 µM in the assay with SW-620 colon; 71.1 µM with HL-60(TB) leukemia; above 100 µM in the assay on COLO 205 colon; above 100 µM in the assay with SN12C renal.
Consider `Clc1cc(Cl)cc(C2SCc3nc4ccccc4n32)c1` (centres undefined), for which the TGI stood at 25.2 µM in the assay with K-562 leukemia; 33.6 µM in the assay with SW-620 colon; 44.2 µM with CAKI-1 renal; 53.4 µM in the assay with HL-60(TB) leukemia; 33.9 µM in the assay with COLO 205 colon; 29.9 µM in the assay on SN12C renal.
As for `CC12CCC(=O)N1c1cc([N+](=O)[O-])ccc1N2` (centres undefined), the TGI with IGROV1 ovarian, in the assay with K-562 leukemia, in the assay on SW-620 colon, with HL-60(TB) leukemia, in the assay with COLO 205 colon and in the assay on SN12C renal was above 100 µM each time.
On to `CN(C(=N)c1ccccc1)c1ccccc1`, for which the TGI in the assay on IGROV1 ovarian, in the assay on K-562 leukemia, with SW-620 colon, with HL-60(TB) leukemia, in the assay with COLO 205 colon and in the assay on SN12C renal was above 100 µM each time.
Regarding `C/C(=N\NC(=O)C[n+]1ccccc1)c1sc(-c2nc(C)c(/C(C)=N/NC(=O)C[n+]3ccccc3)s2)nc1C`, the TGI with IGROV1 ovarian, in the assay with K-562 leukemia, with SW-620 colon, with CAKI-1 renal, with COLO 205 colon and in the assay with SN12C renal was above 100 µM in each case.
`CCOc1ccc(NC(=O)/C(Cc2nc3ccccc3[nH]c2=O)=N\O)cc1`: the TGI in the assay with IGROV1 ovarian, in the assay with K-562 leukemia, in the assay with SW-620 colon, in the assay on CAKI-1 renal and with COLO 205 colon was above 100 µM throughout.
In the case of `N#CC1=C(c2ccccc2)NN(Cc2ccccc2)C(c2ccc(Cl)cc2)CC1=O` (centres undefined), the TGI with SW-620 colon was 54.8 µM; in the assay on CAKI-1 renal it was 76.7 µM; in the assay with HL-60(TB) leukemia, 84.6 µM; with COLO 205 colon it was above 100 µM.
For `CC(C)COC(=O)N1N=NC2C3CC(=O)C(O3)C21` (centres undefined), the TGI in the assay with IGROV1 ovarian, in the assay with K-562 leukemia, in the assay on SW-620 colon, with CAKI-1 renal, with COLO 205 colon and with SN12C renal was above 100 µM throughout.
